This is an account of results in patent US11446287B2, “Compounds and methods for EP300 or CBP modulation and indications therefor” (Opna Immuno-Oncology SA, priority 2019, dated 2022).

The target of this assay is T1, Recombinant human CBP containing the bromodomain (CBP-BD (1043-1159)) (Homo sapiens, UniProt Q92793).
T1 construct: Recombinant human CBP bromodomain (CBP-BD (1043-1159)); made in house; host or cells: E. coli BL21-CodonPlus (DE3), modified pET vector
T1 sequence (Q92793 1081-1197): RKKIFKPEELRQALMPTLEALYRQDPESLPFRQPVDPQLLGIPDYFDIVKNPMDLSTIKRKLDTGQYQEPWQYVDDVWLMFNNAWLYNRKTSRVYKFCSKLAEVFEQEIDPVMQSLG
The experiment in a line: CBP Alphascreen binding assay. As to conditions: read-out: CREBBP (CBP) IC50. The method in brief:
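Buffer: 50 mM HEPES pH 7.5, 50 mM NaCl, 0.01% BSA, 0.01% Triton X-100, 2 mM DTT. The signal was normalised to plate controls and fitted with a four-parameter curve to give IC50.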
Background: Alpha assays give light when donor and acceptor beads are brought close together.
On to `Cc1noc(C)c1-c1cnc2c(c1)c(-c1cnn(C(C)(C)C(=O)O)c1)cn2C(c1ccccn1)C1CCCC1` (stereo not shown) [P-0035, 2-(4-(1-(cyclopentyl(pyridin-2-yl)methyl)-5-(3,5-dimethylisoxazol-4-yl)-1H-pyrrolo[2,3-b]pyridin-3-yl)-1H-pyrazol-1-yl)-2-methylpropanoic acid], for which the 50% inhibitory concentration (IC50) was in the range of 0.1 to 1000 nM. The value for `Cc1noc(C)c1-c1cnc2c(c1)c(-c1cnn(CC(=O)O)c1)cn2C(c1ccccn1)C1CCCC1` (stereo not shown) [P-0036, 2-(4-(1-(cyclopentyl(pyridin-2-yl)methyl)-5-(3,5-dimethylisoxazol-4-yl)-1H-pyrrolo[2,3-b]pyridin-3-yl)-1H-pyrazol-1-yl)acetic acid] was 0.1 to 1000 nM; that for `Cc1noc(C)c1-c1cnc2c(c1)c(-c1cnn(CC(C)(C)O)c1)cn2C(c1ccccn1)C1CCCC1` (stereo not shown) [P-0037, 1-(4-(1-(cyclopentyl(pyridin-2-yl)methyl)-5-(3,5-dimethylisoxazol-4-yl)-1H-pyrrolo[2,3-b]pyridin-3-yl)-1H-pyrazol-1-yl)-2-methylpropan-2-ol] was 1000 to 8000 nM. Next, `Cc1noc(C)c1-c1cnc2c(c1)c(-c1ccc(C(=O)O)c(Cl)c1)cn2C(c1ccccn1)C1CCCC1` (stereo not shown) [P-0038, 2-chloro-4-(1-(cyclopentyl(pyridin-2-yl)methyl)-5-(3,5-dimethylisoxazol-4-yl)-1H-pyrrolo[2,3-b]pyridin-3-yl)benzoic acid]: 0.1 to 1000 nM.

For `COC(=O)c1cc(-c2cn(C(c3ccccn3)C3CCCC3)c3ncc(-c4c(C)noc4C)cc23)ccn1` (stereo not shown) [P-0040, methyl 4-(1-(cyclopentyl(pyridin-2-yl)methyl)-5-(3,5-dimethylisoxazol-4-yl)-1H-pyrrolo[2,3-b]pyridin-3-yl)picolinate], the IC50 fell in the range of 0.1 to 1000 nM. Next, `Cc1noc(C)c1-c1cnc2c(c1)c(-c1ccnc(C(=O)O)c1)cn2C(C1CC1)C1CC1` [P-0041, 4-(1-(dicyclopropylmethyl)-5-(3,5-dimethylisoxazol-4-yl)-1H-pyrrolo[2,3-b]pyridin-3-yl)picolinic acid]: 0.1 to 1000 nM. Next, `Cc1noc(C)c1-c1cnc2c(c1)c(-c1ccnc(C(=O)O)c1)cn2Cc1ccccc1` [P-0042, 4-(1-benzyl-5-(3,5-dimethylisoxazol-4-yl)-1H-pyrrolo[2,3-b]pyridin-3-yl)picolinic acid]: 0.1 to 1000 nM. The value for `Cc1noc(C)c1-c1cnc2c(c1)c(-c1ccnc(C(=O)O)c1)cn2C(c1ccccn1)C1CCC1` (stereo not shown) [P-0043, 4-(1-(cyclobutyl(pyridin-2-yl)methyl)-5-(3,5-dimethylisoxazol-4-yl)-1H-pyrrolo[2,3-b]pyridin-3-yl)picolinic acid] was 0.1 to 1000 nM. With `Cc1noc(C)c1-c1cnc2c(c1)c(-c1ccnc(C(=O)O)c1)cn2Cc1ccccn1` [P-0044, 4-(5-(3,5-dimethylisoxazol-4-yl)-1-(pyridin-2-ylmethyl)-1H-pyrrolo[2,3-b]pyridin-3-yl)picolinic acid], the IC50 was in the range of 0.1 to 1000 nM.

In the case of `Cc1noc(C)c1-c1cnc2c(c1)c(-c1ccnc(C(=O)O)c1)cn2CC1CC1` [P-0045, 4-(1-(cyclopropylmethyl)-5-(3,5-dimethylisoxazol-4-yl)-1H-pyrrolo[2,3-b]pyridin-3-yl)picolinic acid], the IC50 fell in the range of 0.1 to 1000 nM. Turning to `COC(=O)c1cc(-c2cn(C(c3ccccn3)C3CCC3)c3ncc(-c4c(C)noc4C)cc23)ccn1` (stereo not shown) [P-0046, methyl 4-(1-(cyclobutyl(pyridin-2-yl)methyl)-5-(3,5-dimethylisoxazol-4-yl)-1H-pyrrolo[2,3-b]pyridin-3-yl)picolinate], the IC50 fell in the range of 0.1 to 1000 nM. The value for `COc1cc(C(=O)O)ccc1-c1cn([C@@H](C)c2ccccn2)c2ncc(-c3c(C)noc3C)cc12` [P-0047, (S)-4-(5-(3,5-dimethylisoxazol-4-yl)-1-(1-(pyridin-2-yl)ethyl)-1H-pyrrolo[2,3-b]pyridin-3-yl)-3-methoxybenzoic acid] was 0.1 to 1000 nM.

On to `Cc1noc(C)c1-c1cnc2c(c1)c(-c1cccc(C(=O)O)c1)cn2Cc1ccccc1` [P-0048, 3-(1-benzyl-5-(3,5-dimethylisoxazol-4-yl)-1H-pyrrolo[2,3-b]pyridin-3-yl)benzoic acid], for which the IC50 lay within 0.1 to 1000 nM. Turning to `Cc1noc(C)c1-c1cnc2c(c1)c(-c1cccc(C(=O)O)c1)cn2Cc1ccccn1` [P-0049, 3-(5-(3,5-dimethylisoxazol-4-yl)-1-(pyridin-2-ylmethyl)-1H-pyrrolo[2,3-b]pyridin-3-yl)benzoic acid], the IC50 lay within 0.1 to 1000 nM. Next, `Cc1noc(C)c1-c1cnc2c(c1)c(-c1cccc(C(=O)O)c1)cn2CC1CC1` [P-0050, 3-(1-(cyclopropylmethyl)-5-(3,5-dimethylisoxazol-4-yl)-1H-pyrrolo[2,3-b]pyridin-3-yl)benzoic acid]: 0.1 to 1000 nM. As for `Cc1noc(C)c1-c1cnc2c(c1)c(C#CC(C)(C)C(=O)O)cn2Cc1ccccc1` [P-0051, 4-(1-benzyl-5-(3,5-dimethylisoxazol-4-yl)-1H-pyrrolo[2,3-b]pyridin-3-yl)-2,2-dimethylbut-3-ynoic acid], the IC50 was 0.1 to 1000 nM.

With `COC(=O)c1cc(-n2cc(Cc3ccccc3)c3ncc(-c4c(C)noc4C)cc32)ccn1` [P-0052, methyl 4-(3-benzyl-6-(3,5-dimethylisoxazol-4-yl)-1H-pyrrolo[3,2-b]pyridin-1-yl)picolinate], the 50% inhibitory concentration (IC50) is 0.1 to 1000 nM. Next, `Cc1noc(C)c1-c1cnc2c(Cc3ccccc3)cn(-c3ccnc(C(=O)O)c3)c2c1` [P-0053, 4-(3-benzyl-6-(3,5-dimethylisoxazol-4-yl)-1H-pyrrolo[3,2-b]pyridin-1-yl)picolinic acid]: 0.1 to 1000 nM. Consider `Cc1noc(C)c1-c1cnc2c(C(=O)c3ccccc3)cn(-c3ccnc(C(=O)O)c3)c2c1` [P-0054, 4-(3-benzoyl-6-(3,5-dimethylisoxazol-4-yl)-1H-pyrrolo[3,2-b]pyridin-1-yl)picolinic acid], for which the IC50 lay in the range of 0.1 to 1000 nM. Take `Cc1noc(C)c1-c1cnc2c(c1)c(-c1ccc(C(=O)O)cc1OC(F)(F)F)cn2-c1ccc(C2CC2)nc1` [P-0388, 4-(1-(6-cyclopropylpyridin-3-yl)-5-(3,5-dimethylisoxazol-4-yl)-1H-pyrrolo[2,3-b]pyridin-3-yl)-3-(trifluoromethoxy)benzoic acid]: the IC50 lay in the range of 0.1 to 1000 nM. Next, `Cc1noc(C)c1-c1cnc2c(c1)c(-c1ccc(C(=O)O)cc1OC(F)(F)F)cn2C1CCC(C#N)C1` (stereo not shown) [P-0389, 4-(1-(3-cyanocyclopentyl)-5-(3,5-dimethylisoxazol-4-yl)-1H-pyrrolo[2,3-b]pyridin-3-yl)-3-(trifluoromethoxy)benzoic acid]: 0.1 to 1000 nM. Next, `Cc1noc(C)c1-c1cnc2c(c1)c(-c1c(Cl)cc(C(=O)O)cc1OCC(F)F)cn2-c1cnc(C2CC2)nc1` [P-0390, 3-chloro-4-(1-(2-cyclopropylpyrimidin-5-yl)-5-(3,5-dimethylisoxazol-4-yl)-1H-pyrrolo[2,3-b]pyridin-3-yl)-5-(2,2-difluoroethoxy)benzoic acid]: 0.1 to 1000 nM. In the case of `Cc1noc(C)c1-c1cnc2c(c1)c(-c1c(Cl)cc(C(=O)O)cc1OC1CCC1)cn2-c1cnc(C2CC2)nc1` [P-0391, 3-chloro-5-cyclobutoxy-4-(1-(2-cyclopropylpyrimidin-5-yl)-5-(3,5-dimethylisoxazol-4-yl)-1H-pyrrolo[2,3-b]pyridin-3-yl)benzoic acid], the IC50 was 0.1 to 1000 nM. Next, `COc1ncc(-n2cc(-c3ccc(C(=O)O)cc3OC(F)(F)F)c3cc(-c4c(C)noc4C)cnc32)cn1` [P-0392, 4-(5-(3,5-dimethylisoxazol-4-yl)-1-(2-methoxypyrimidin-5-yl)-1H-pyrrolo[2,3-b]pyridin-3-yl)-3-(trifluoromethoxy)benzoic acid]: 0.1 to 1000 nM; `Cc1noc(C)c1-c1cnc2c(c1)c(-c1c(Cl)cc(C(=O)O)cc1OC(C)C)cn2-c1cnc(C2CC2)nc1` [P-0393, 3-chloro-4-(1-(2-cyclopropylpyrimidin-5-yl)-5-(3,5-dimethylisoxazol-4-yl)-1H-pyrrolo[2,3-b]pyridin-3-yl)-5-isopropoxybenzoic acid]: 0.1 to 1000 nM; `Cc1noc(C)c1-c1cnc2c(c1)c(-c1c(F)cc(C(=O)O)cc1OC1CC1)cn2C(C1CC1)C1CC1` [P-0394, 3-cyclopropoxy-4-(1-(dicyclopropylmethyl)-5-(3,5-dimethylisoxazol-4-yl)-1H-pyrrolo[2,3-b]pyridin-3-yl)-5-fluorobenzoic acid]: 0.1 to 1000 nM. Consider `Cc1noc(C)c1-c1cnc2c(c1)c(-c1c(Cl)cc(C(=O)O)cc1OC(F)(F)F)cn2-c1ncccc1C#N` [P-0395, 3-chloro-4-(1-(3-cyanopyridin-2-yl)-5-(3,5-dimethylisoxazol-4-yl)-1H-pyrrolo[2,3-b]pyridin-3-yl)-5-(trifluoromethoxy)benzoic acid], for which the IC50 fell in the range of 0.1 to 1000 nM. The value for `Cc1noc(C)c1-c1cnc2c(c1)c(-c1c(Cl)cc(C(=O)O)cc1OC1CCC1)cn2-c1ncccc1C#N` [P-0396, 3-chloro-4-(1-(3-cyanopyridin-2-yl)-5-(3,5-dimethylisoxazol-4-yl)-1H-pyrrolo[2,3-b]pyridin-3-yl)-5-cyclobutoxybenzoic acid] was 0.1 to 1000 nM. In the case of `Cc1noc(C)c1-c1cnc2c(c1)c(-c1c(F)cc(C(=O)O)cc1OC1CC1)cn2C1CCOCC1` [P-0397, 3-cyclopropoxy-4-(5-(3,5-dimethylisoxazol-4-yl)-1-(tetrahydro-2H-pyran-4-yl)-1H-pyrrolo[2,3-b]pyridin-3-yl)-5-fluorobenzoic acid], the concentration for half-maximal inhibition (IC50) was 0.1 to 1000 nM. Regarding `CCOc1nc(C(=O)O)c(Cl)cc1-c1cn(C2CCOCC2)c2ncc(-c3c(C)noc3C)cc12` [P-0398, 3-chloro-5-(5-(3,5-dimethylisoxazol-4-yl)-1-(tetrahydro-2H-pyran-4-yl)-1H-pyrrolo[2,3-b]pyridin-3-yl)-6-ethoxypicolinic acid], the half-inhibitory concentration (IC50) lay in the range of 0.1 to 1000 nM. As to `Cc1noc(C)c1-c1cnc2c(c1)c(-c1ccc(C(=O)O)cc1OC(F)(F)F)cn2-c1ccc(=O)n(C)c1` [P-0399, 4-(5-(3,5-dimethylisoxazol-4-yl)-1-(1-methyl-6-oxo-1,6-dihydropyridin-3-yl)-1H-pyrrolo[2,3-b]pyridin-3-yl)-3-(trifluoromethoxy)benzoic acid], the IC50 lay in the range of 0.1 to 1000 nM.

As a reminder, the IC50 is the midpoint of a concentration-inhibition curve.
